Values of other authors, collected in US7429679B2, “Sulphonic acid salt of sibutramine” (CJ Corporation, priority 2005, dated 2008).

System: mouse
Details: intravenous; cited from earlier work

| Structure (SMILES) | LDL0 [mg/kg] |
| --- | --- |
| O=S(=O)(O)CCS(=O)(=O)O [ethane disulfonic acid] | 68 |
| CCS(=O)(=O)O [ethanesulfonic acid] | 48 |
